Assay results as given in paper PMC12977544, “Phenotypic high-throughput screening identifies modulators of gut microbial choline metabolism” (mBio, 2026).

Test system: E. coli MS 200-1
Assay: TMA inhibition in bacterial whole cells (LC–MS/MS of d9-TMA from d9-choline)
Format: cell-based, Escherichia coli MS 200-1
Settings: Escherichia coli, MS2001, 1.25 h; 1 mM d9-choline in PBS, 75 min, 37°C, anaerobic
Method: For TMA inhibition assays, E. coli and P. mirabilis were grown in NCE medium supplemented with 20 mM choline chloride, A. hydrogenalis was grown in MEGA medium supplemented with 3 mM choline chloride, and C. sporogenes was grown in BHI medium supplemented with 20 mM of choline chloride to induce expression of the cut gene cluster. For MIC assays, all bacteria strains were grown in MEGA medium.
Compounds were stored as 10 mM DMSO stocks at –20°C and diluted in DMSO to prepare varying concentrations of inhibitors for testing. Bacteria were grown anaerobically overnight in media supplemented with choline as described above. Cells were pelleted and resuspended in PBS, and d9-choline chloride was added to a final concentration of 1 mM. The final OD600 of the PBS cell resuspensions is as follows: 0.4 (E. coli), 0.15–0.2 (P. mirabilis), 0.2 (C. sporogenes), and 0.4 (A. hydrogenalis). The resuspended cells were added to 96-well plates containing inhibitors (final concentration of 1% DMSO, with final inhibitor concentrations ranging between 0 and 325 µM). The plates were sealed and incubated for 75 min (or 90 min for P. mirabilis) at 37°C. Following incubation, the plates were removed from the anaerobic chamber and analyzed immediately or kept at –20°C until LC–MS/MS analysis. Each inhibitor concentration was tested in triplicate. EC50 values were calculated with GraphPad Prism by fitting the log(inhibitor) vs response—Variable slope (four-parameter) model for non-linear regression.
Samples were kept frozen until analysis and kept cold on ice during handling due to the volatility of TMA. Bacterial cell resuspensions in PBS were diluted 100-fold in LCMS-grade acetonitrile with 0.1% formic acid to lyse cells, precipitate proteins, and extract metabolites. Samples were centrifuged at 4,000 rpm for 10 min at 4°C to pellet proteins. The supernatants were then further diluted 20-fold in LCMS-grade acetonitrile with 0.1% formic acid, and the resulting solution was analyzed by LC–MS/MS.
LC–MS/MS analysis was performed on an Agilent 1290/6470 Triple Quadrupole LC–MS instrument (Agilent Technologies) using electrospray ionization. The mass spectrometer was operated in multiple reaction monitoring (MRM) mode with positive ionization monitoring. The precursor–product ion pairs used in MRM mode were as follows: m/z 69.1m/z → 49.1 (d9-TMA) and m/z 113.2 m/z → 69.1 (d9-choline). The capillary voltage was set to 4.0 kV, and the fragmentor voltage was set to 30 V (d9-TMA) and 115 V (d9-choline). The collision energy for the precursor–product ion pairs was set to 29 V (d9-TMA) and 21 V (d9-choline). MS^1 resolution was set to wide and MS^2 resolution to unit. The drying gas temperature was maintained at 250°C, with a flow rate of 11 L/min and a nebulizer pressure of 45 psi. The time filter width used was 0.07 min. The injection volume of all samples was 1 μL. Samples were injected onto InfinityLab Poroshell 120 (Agilent) HILIC columns (2.7 μm, 100 mm × 2.1 mm, 100 Å) preceded by InfinityLab Poroshell 120 HILIC guard columns (2.1 mm, 1.9µm UHPLC guard). The LC conditions on the binary pump were as follows: a gradient of 5–35% A increasing over 1.95 min (1.2 mL/min), a gradient of 35–5% A decreasing over 0.05 min (1.6 mL/min), and held at 5% A for 0.5 min (2 mL/min). […] Solvent A was 10 mM ammonium formate with 0.1% formic acid, and solvent B was acetonitrile with 0.1% formic acid. Data analysis was performed with Mass Hunter Workstation Data Acquisition and Qualitative Analysis software (Agilent Technologies).

Cc1ccc(-c2cc(C(=O)NCCCN3CCc4ccccc4C3)c(C)[nH]2)cc1C [Compound 5]
EC50: 12 µM
